Test: Critical water activity of solid forms, samples tested by powder X-ray diffraction
Format: physicochemical
From the text: Critical water activity is a phase boundary above which a hydrate is a stable form. […] Values of aw. correspond to percent humidity, where the percent humidity is described as 100 x aw. Thus 0.1 aw corresponds to 10% humidity, 0.2 aw corresponds to 20% humidity, and so on. The claimed polymorphic forms of Compound 1 mono-hydrochloride interconvert between Form 1 and Form 2 at a critical water activity of between 0.60 and 0.65 (corresponding to a relative humidity of between 60% and 65%). The critical water activity of the free base form of Compound 1 is between 0.2 and 0.3 (corresponding to a relative humidity between 20% and 30%). It is noted that manufacturing processes are routinely run at relative humidities that exceed 30% relative humidity, but manufacturing processes run at relative humidities of >60% are unusual. Samples were tested using powder X-ray diffraction. Analysis was conducted using a Bruker AXS D8 Endeavor diffractometer equipped with a Cu radiation source. The divergence slit was set at 6 mm continuous illumination. Diffracted radiation was detected by a PSD-Lynx Eye detector, with the detector PSD opening set at 4.104 degrees. The X-ray tube voltage and amperage were set to 40 kV and 40 mA respectively. Data was collected in the Theta-Theta goniometer at the Cu wavelength from 3.0 to 40.0 degrees 2-Theta using a step size of 0.020 degrees and a step time of 0.3 second. Samples were prepared by placing them in a silicon low background sample holder and rotated during collection. Data were collected using Bruker DIFFRAC Plus software and analysis was performed by EVA diffract plus software.

| Structure (SMILES) | PXRD Result (solid form) (Water Activity at Room Temperature 0.60 aw) | PXRD Result (solid form) (Water Activity at Room Temperature 0.65 aw) | PXRD Result (solid form) (Water Activity at Room Temperature 0.70 aw) | PXRD Result (solid form) (Water Activity at Room Temperature 0.75 aw) | PXRD Result (solid form) (Water Activity at Room Temperature 0.80 aw) | PXRD Result (solid form) (Water Activity at Room Temperature 0.1 aw) | PXRD Result (solid form) (Water Activity at Room Temperature 0.2 aw) | PXRD Result (solid form) (Water Activity at Room Temperature 0.3 aw) | PXRD Result (solid form) (Water Activity at Room Temperature 0.5 aw) | PXRD Result (solid form) (Water Activity at Room Temperature 1.0 Aw) |
| --- | --- | --- | --- | --- | --- | --- | --- | --- | --- | --- |
| CC(C)c1cnc(-c2cc(Cl)ccc2F)cc1Nc1ccncc1C(=O)NC(CO)CO.Cl [Compound 1, mono-HCl salt, 4-(2-(5-chloro-2-fluorophenyl)-5-isopropylpyridin-4-ylamino)-N-(1,3-dihydroxypropan-2-yl)nicotinamide mono hydrochloride] | Form 1 | Form 2 | Form 2 | Form 2 | Form 2 | – | – | – | – | – |
| CC(C)c1cnc(-c2cc(Cl)ccc2F)cc1Nc1ccncc1C(=O)NC(CO)CO [Compound 1, Free Base, 4-(2-(5-chloro-2-fluorophenyl)-5-isopropylpyridin-4-ylamino)-N-(1,3-dihydroxypropan-2-yl)nicotinamide] | – | – | – | – | – | free base anhydrous | free base anhydrous | free base monohydrate | free base monohydrate | free base monohydrate |

From US20200199104A1, “Novel Polymorphic Forms of a TGFBeta Inhibitor” (PFIZER INC., priority 2018, published 2020)
